Source: US6221865A, “Inhibitors of protein isoprenyl transferases” (priority 1998, dated 2001)
Where a name gives a salt, the structure may show the parent alone.

Biological target: T1, protein farnesyltransferase (Rattus norvegicus, UniProt Q02293+Q04631)
T1 construct: The enzyme is purified according to Reiss, Y., et al., Cell, 62: 81-88 (1990), utilizing steps one through three; from tissue; host or cells: rat brain
Assay: Inhibition of farnesyltransferase (scintillation proximity assay, rat brain enzyme, biotin-K Ras B fragment substrate)
Assay type: biochemical
Conditions: 1 × 10^-5 M (Table 1)
Excerpt: The ability of the compounds of the invention to inhibit protein farnesyltransferase or protein geranylgeranyltransferase can be measured according to the method of Moores, et al., J. Biol. Chem. 266: 14603 (1991) or the method of Vogt, et al., J. Biol. Chem. 270:660-664 (1995). In addition, procedures for determination of the inhibition of farnesylation of the oncogene protein Ras are described by Goldstein, et al., J. Biol. Chem., 266:15575-15578 (1991) and by Singh in U.S. Pat. No. 5,245,061.
In addition, in vitro inhibition of protein farnesyltransferase may be measured by the following procedure. Rat brain protein farnesyltransferase activity is measured using an Amersham Life Science commercial scintillation proximity assay kit and substituting a biotin-K Ras B fragment (biotin-[…]Ble-Met-CO2 H), […] final concentration, for the biotin-lamin substrate provided by Amersham. The enzyme is purified according to Reiss, Y., et al., Cell, 62: 81-88 (1990), utilizing steps one through three.
The % inhibition of protein farnesyltransferase was determined for representative compounds of the invention.

T1 sequence (Q02293 whole entry, one chain of several): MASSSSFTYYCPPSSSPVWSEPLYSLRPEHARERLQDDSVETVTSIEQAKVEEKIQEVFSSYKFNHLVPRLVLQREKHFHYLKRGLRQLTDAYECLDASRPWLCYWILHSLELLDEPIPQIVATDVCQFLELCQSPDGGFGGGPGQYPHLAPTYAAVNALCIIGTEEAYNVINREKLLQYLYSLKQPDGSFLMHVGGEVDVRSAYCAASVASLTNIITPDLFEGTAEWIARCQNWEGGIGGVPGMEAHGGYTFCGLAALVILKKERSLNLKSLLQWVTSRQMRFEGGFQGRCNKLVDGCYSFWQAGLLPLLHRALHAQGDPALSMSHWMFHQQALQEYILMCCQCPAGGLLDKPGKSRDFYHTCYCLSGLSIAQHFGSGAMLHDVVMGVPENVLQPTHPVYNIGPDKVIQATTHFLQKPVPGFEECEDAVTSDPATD

SMILES | % inhibition of farnesyltransferase at 1 × 10^-5 M [%]
CSCC[C@H](NC(=O)c1ccc(CNc2cccc(C)c2)cc1-c1ccccc1)C(=O)O [Example 674] | 40
COc1cc(Cl)ccc1C(=O)Nc1ccc(C(=O)N[C@@H](CCSC)C(=O)O)c(-c2ccccc2)c1 [Example 753] | 55
CSCC[C@H](NC(=O)c1ccc(CNc2cc(C)on2)cc1-c1ccccc1)C(=O)O [Example 372] | 69
CSCC[C@H](NC(=O)c1ccc(CNc2ccc3c(c2)Cc2ccccc2-3)cc1-c1ccccc1)C(=O)O [Example 706] | 53
COc1cc(I)c(C(=O)Nc2ccc(C(=O)N[C@@H](CCSC)C(=O)O)c(-c3ccccc3)c2)cc1OC [Example 756] | 47

Same assay, conditions: 1 × 10^-6 M (Table 2)

SMILES | % inhibition of farnesyltransferase at 1 × 10^-6 M [%]
CSCC[C@H](NC(=O)c1ccc(COCC(CC2CCCCC2)CC2CCCCC2)cc1-c1ccccc1C)C(=O)O [Example 889] | 95
CSCC[C@H](NC(=O)c1ccc(NC(=O)c2cnccc2C(F)(F)F)cc1-c1ccccc1C)C(=O)O [Example 481] | 95
CCOC(=O)c1ccc(NCc2ccc(C(=O)N[C@@H](CCSC)C(=O)O)c(-c3ccccc3)c2)cc1 [Example 646] | 58
CSCC[C@H](NC(=O)c1ccc(CN(Cc2ccccc2)Cc2ccccc2)cc1-c1ccccc1C)C(=O)O [Example 512] | 94
CSCC[C@H](NC(=O)c1ccc(NC(=O)C2CCC(=O)N2)cc1-c1ccccc1)C(=O)O (stereo partly drawn) [Example 202] | 31
CSCC[C@H](NC(=O)c1ccc(CN(CC23CC4CC(CC(C4)C2)C3)c2ccccc2)cc1-c1ccccc1C)C(=O)O [Example 510] | 84
CSCCC(NC(=O)c1ccc(NC(=O)c2cncnc2)cc1-c1ccccc1)C(=O)O (stereo not drawn) [Example 219] | 56
CSCC[C@H](NC(=O)c1ccc(CN[C@H](/C=C\CC(C)C)CC2CCCCC2)cc1-c1ccccc1)C(=O)O [Example 666] | 82
CSCC[C@H](NC(=O)c1ccc(COCC2CCCO2)cc1-c1ccccc1)C(=O)O (stereo partly drawn) [Example 288] | 22

Same assay, conditions: 1 × 10^-7 M (Table 3)

SMILES | % inhibition of farnesyltransferase at 1 × 10^-7 M [%]
CSCC[C@@H](C(=O)[O-])N(C)C(=O)c1ccc(COCCCC2CCCCC2)cc1-c1ccccc1C.[Li+] [Example 597] | 75
CSCC[C@H](NC(=O)c1ccc(COCc2ccc(-c3ccc(SC)cc3)o2)cc1-c1ccccc1C)C(=O)[O-].[Li+] [Example 447] | 91
CSCC[C@H](NC(=O)c1ccc(COCCc2cccc3ccccc23)cc1-c1ccccc1C)C(=O)[O-].[Li+] [Example 592] | 93
COc1ncc(COCc2ccc(C(=O)N[C@@H](CCSC)C(=O)O)c(-c3ccccc3C)c2)s1 [Example 896] | 96
CSCC[C@H](NC(=O)c1ccc(CN(c2ccccc2)S(=O)(=O)c2ccccc2)cc1-c1ccccc1C)C(=O)O [Example 769] | 90

Same assay, conditions: 1 × 10^-8 M (Table 4)

SMILES | % inhibition of farnesyltransferase at 1 × 10^-8 M [%]
CSCC[C@H](NC(=O)c1ccc(NC[C@H]2NCC[C@H]2S)cc1-c1ccccc1)C(=O)O [Example 960] | > 50
CSCC[C@H](NC(=O)c1ccc(CN(Cc2ccccc2)c2cncnc2)cc1-c1ccccc1C)C(=O)O [Example 836] | 95
CCCCS(=O)(=O)N(CCCc1ccccc1)Cc1ccc(C(=O)N[C@@H](CCSC)C(=O)O)c(-c2ccccc2C)c1 [Example 927] | 74
CSCC[C@H](NC(=O)c1ccc(COCc2cccc(Cl)c2)cc1-c1ccccc1C)C(=O)[O-].[Li+] [Example 934] | 71
CCCCN(CCc1ccccc1)Cc1ccc(C(=O)N[C@@H](CCSC)C(=O)O)c(-c2ccccc2C)c1 [Example 928] | 84
CSCC[C@H](NC(=O)c1ccc(COCc2cnc(-c3ccccc3Cl)o2)cc1-c1ccccc1C)C(=O)[O-].[Li+] [Example 892] | 59

Same assay, conditions: read-out: % inhibition at 0.01 μM (**); Table 6, ** = 0.01 μM (footnote); title prints 0.01 mM

SMILES | inhibition at 0.01 µM [%]
CSCC[C@H](NC(=O)c1ccc(Cc2nnn(CC3CCCCC3)n2)cc1-c1ccccc1C)C(=O)O [Example 1102, N-[4-(2cyclohexylmethyltetrazol-5-ylmethyl)-2-(2-methylphenyl)benzoyl]methionine] | 84
CSCC[C@H](NC(=O)c1ccc(CN2CCOC[C@@H]2COCC2CCCCC2)cc1-c1ccccc1C)C(=O)O [Example 1109, N-[4-(3(S)-cyclohexylmethoxymethylmorpholin-4-ylmethyl)-2-(2-methylphenyl)benzoyl]methionine] | 74

Same assay, conditions: read-out: % inhibition of farnesyltransferase at 1 × 10^-6 M; 1 × 10^-6 M (Table 2)

SMILES | inhibition at 1 µM [%]
CSCC[C@H](NC(=O)c1ccc(CN2CCC(O)C2)cc1-c1ccccc1)C(=O)O (stereo partly drawn) [Example 291] | 23
CSCC[C@H](NC(=O)c1ccc(S(=O)(=O)NCCCn2ccnc2)cc1-c1ccccc1C)C(=O)O [Example 777, lithium salt] | 83
CSCC[C@H](NC(=O)c1ccc(CCCC(=O)c2ccc3ccccc3c2)cc1-c1ccccc1C)C(=O)O [Example 473, N-[4-(4-naphth-2-ylbut-4-on-1-yl)-2-(2-methylphenyl)benzoyl]methionine lithium salt] | 96
CSCC[C@H](NC(=O)c1ccc(/C=C/c2cccc3ccccc23)cc1-c1ccccc1C)C(=O)O [Example 466, N-[4-(2-naphth-1-ylethenyl)-2-(2-methylphenyl)benzoyl]methionine lithium salt] | 93
CSCC[C@H](NC(=O)c1ccc(CN2CCN(C(=O)OC(C)(C)C)CC2)cc1-c1ccccc1C)C(=O)O [Example 866, N-[4-(4-t-butoxycarbonylpiperazin-1-ylmethyl)-2-(2-methylphenyl)benzoyl]methionine] | 62
CSCC[C@H](NC(=O)c1ccc(/C=C/c2cncnc2)cc1-c1ccccc1C)C(=O)O [Example 494, N-[4-(2-pyrimidin-5-ylethen-1-yl)-2-(2-methylphenyl)benzoyl]methionine lithium salt] | 96
CSCC[C@H](NC(=O)c1ccc(S(=O)(=O)N(Cc2ccccc2)c2ccccc2)cc1-c1ccccc1C)C(=O)O [Example 768, N-[4-(N-Benzyl-N-phenylaminosulfonyl)-2-(2-methylphenyl)benzoyl]methionine lithium salt] | 67
CSCC[C@H](NC(=O)c1ccc(CN2CCN(C)CC2)cc1-c1ccccc1)C(=O)O [Example 289, [4-(4-methylpiperazinylmethyl)-2-phenylbenzoyl]methionine] | 23
Cc1ccccc1-c1cc(CN(C)C(C)(C)Cc2ccccc2)ccc1C(=O)N[C@@H](CCS(C)(=O)=O)C(=O)O [Example 313] | 94
CSCC[C@H](NC(=O)c1ccc(CCc2cnc(Oc3ccccc3)cn2)cc1-c1ccccc1C)C(=O)O [Example 813, lithium salt] | 95
CSCC[C@H](NC(=O)c1ccc(S(=O)(=O)NCCN2CCCCC2)cc1-c1ccccc1C)C(=O)O [Example 774, lithium salt] | 48
CSCC[C@H](NC(=O)c1ccc(CN2CCNCC2)cc1-c1ccccc1)C(=O)O [Example 290, (4-piperazinylmethyl-2-phenylbenzoyl)methionine] | 74
CSCC[C@H](NC(=O)c1ccc(CN(C)C(C)(C)Cc2ccccc2)cc1-c1ccccc1C)C(=O)O [Example 309] | 98

Same assay, conditions: read-out: % inhibition of farnesyltransferase at 1 × 10^-7 M; 1 × 10^-7 M (Table 3)

SMILES | inhibition at 0.1 µM [%]
CSCC[C@H](NC(=O)c1ccc(CCc2ccc(Oc3ccccc3N)cc2)cc1-c1ccccc1C)C(=O)O [Example 857, N-[4-(2-(4-(2-aminophenoxy)phenyl)ethyl)-2-(2-methylphenyl)benzoyl]methionine] | 92
CSCC[C@H](NC(=O)c1ccc(CCc2ccccc2Oc2ccccc2)cc1-c1ccccc1C)C(=O)O [Example 455, N-[4-(2-(2-phenoxyphenyl)ethyl)-2-(2-methylphenyl)benzoyl]methionine lithium salt] | 83

Same assay, conditions: read-out: % inhibition of farnesyltransferase at 1 × 10^-8 M; 1 × 10^-8 M (Table 4)

SMILES | inhibition at 0.01 µM [%]
CSCC[C@H](NC(=O)c1ccc(/C=C/c2ccc(Oc3cccc(Cl)c3)cc2)cc1-c1ccccc1C)C(=O)O [Example 858, N-[4-(2-(4-(3-chlorophenoxy)phenyl)ethen-1-yl)-2-(2-methylphenyl)benzoyl]methionine] | 60
CSCC[C@H](NC(=O)c1ccc(CN2CCC[C@H]2COCC2CCCCC2)cc1-c1ccccc1C)C(=O)O [Example 992, N-[4-(2-cyclohexylmethoxymethylpyrrolidin-1-ylmethyl)-2-(2-methylphenyl)benzoyl]methionine] | 93
CSCC[C@H](NC(=O)c1ccc(CON=C(Cc2ccccc2)Cc2ccccc2)cc1-c1ccccc1C)C(=O)O [Example 888, N-[4-N-(1,3-Diphenylpropan-2-yl)iminooxymethyl-2-(2-methylphenyl)benzoyl]-methionine lithium salt] | 86
